According to ChEMBL document CHEMBL5260810, “Inhibition of bromodomain-containing protein 9 for the prevention of epigenetically-defined drug resistance” (Bioorg Med Chem Lett, 2017):

Experiments:
[1] = test system: KP-4; experiment: Cytotoxicity against human KP-4 cells measured after 8 days; type: functional, cell-based; conditions: KP-4, 192 h
[2] = target: Beta-2 adrenergic receptor (Homo sapiens) (UniProt P07550); experiment: Displacement of [3H](-)CGP 12177 from human recombinant beta2 adrenoceptor at 10 uM after 120 mins by scintillation counting analysis relative to control
Beta-2 adrenergic receptor (Homo sapiens), sequence (P07550 whole entry, looked up): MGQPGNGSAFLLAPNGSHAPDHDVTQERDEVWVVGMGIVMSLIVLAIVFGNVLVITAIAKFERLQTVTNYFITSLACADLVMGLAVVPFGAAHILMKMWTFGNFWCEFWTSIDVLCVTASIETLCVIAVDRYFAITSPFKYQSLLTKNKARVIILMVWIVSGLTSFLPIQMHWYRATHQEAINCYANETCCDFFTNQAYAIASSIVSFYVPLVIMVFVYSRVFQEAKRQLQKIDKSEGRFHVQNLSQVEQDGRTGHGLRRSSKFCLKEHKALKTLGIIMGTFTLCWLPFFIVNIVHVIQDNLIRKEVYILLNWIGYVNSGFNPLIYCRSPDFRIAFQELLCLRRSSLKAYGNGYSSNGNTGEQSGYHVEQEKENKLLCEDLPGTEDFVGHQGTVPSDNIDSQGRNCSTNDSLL

[3] = test system: NCI-H1581; experiment: Cytotoxicity against human NCI-H1581 cells measured after 8 days; type: functional, cell-based; conditions: NCI-H1581, 192 h
[4] = target: 5-hydroxytryptamine receptor 1B (Rattus norvegicus) (UniProt P28564); experiment: Displacement of [125I]-CYP from rat brain 5-HT1B receptor at 10 uM after 120 mins by scintillation counting analysis relative to control
5-hydroxytryptamine receptor 1B (Rattus norvegicus), sequence (P28564 whole entry): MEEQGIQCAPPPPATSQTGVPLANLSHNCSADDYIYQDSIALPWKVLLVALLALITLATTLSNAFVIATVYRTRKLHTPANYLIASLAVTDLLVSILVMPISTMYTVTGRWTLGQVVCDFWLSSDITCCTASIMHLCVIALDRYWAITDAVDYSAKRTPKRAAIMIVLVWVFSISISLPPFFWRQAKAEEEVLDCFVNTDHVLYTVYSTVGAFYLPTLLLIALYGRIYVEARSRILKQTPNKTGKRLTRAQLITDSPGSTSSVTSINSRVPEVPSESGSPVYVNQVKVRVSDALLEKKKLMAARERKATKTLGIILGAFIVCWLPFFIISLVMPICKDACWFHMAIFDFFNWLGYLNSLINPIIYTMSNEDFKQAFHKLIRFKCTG

[5] = Cytotoxicity against human COLO 206F cells measured after 8 days; type: functional, cell-based; conditions: 192 h
[6] = test system: EPLC-272H; experiment: Cytotoxicity against human EPLC-272H cells measured after 8 days; type: functional, cell-based; conditions: 192 h
[7] = Cytotoxicity against human NCI-H2110 cells measured after 8 days; type: functional, cell-based; conditions: NCI-H2110, 192 h
[8] = target: Receptor-type tyrosine-protein kinase FLT3 (Homo sapiens) (UniProt P36888); experiment: Inhibition of Flt3 (unknown origin) at 1 uM relative to control
Receptor-type tyrosine-protein kinase FLT3 (Homo sapiens), sequence (P36888 whole entry): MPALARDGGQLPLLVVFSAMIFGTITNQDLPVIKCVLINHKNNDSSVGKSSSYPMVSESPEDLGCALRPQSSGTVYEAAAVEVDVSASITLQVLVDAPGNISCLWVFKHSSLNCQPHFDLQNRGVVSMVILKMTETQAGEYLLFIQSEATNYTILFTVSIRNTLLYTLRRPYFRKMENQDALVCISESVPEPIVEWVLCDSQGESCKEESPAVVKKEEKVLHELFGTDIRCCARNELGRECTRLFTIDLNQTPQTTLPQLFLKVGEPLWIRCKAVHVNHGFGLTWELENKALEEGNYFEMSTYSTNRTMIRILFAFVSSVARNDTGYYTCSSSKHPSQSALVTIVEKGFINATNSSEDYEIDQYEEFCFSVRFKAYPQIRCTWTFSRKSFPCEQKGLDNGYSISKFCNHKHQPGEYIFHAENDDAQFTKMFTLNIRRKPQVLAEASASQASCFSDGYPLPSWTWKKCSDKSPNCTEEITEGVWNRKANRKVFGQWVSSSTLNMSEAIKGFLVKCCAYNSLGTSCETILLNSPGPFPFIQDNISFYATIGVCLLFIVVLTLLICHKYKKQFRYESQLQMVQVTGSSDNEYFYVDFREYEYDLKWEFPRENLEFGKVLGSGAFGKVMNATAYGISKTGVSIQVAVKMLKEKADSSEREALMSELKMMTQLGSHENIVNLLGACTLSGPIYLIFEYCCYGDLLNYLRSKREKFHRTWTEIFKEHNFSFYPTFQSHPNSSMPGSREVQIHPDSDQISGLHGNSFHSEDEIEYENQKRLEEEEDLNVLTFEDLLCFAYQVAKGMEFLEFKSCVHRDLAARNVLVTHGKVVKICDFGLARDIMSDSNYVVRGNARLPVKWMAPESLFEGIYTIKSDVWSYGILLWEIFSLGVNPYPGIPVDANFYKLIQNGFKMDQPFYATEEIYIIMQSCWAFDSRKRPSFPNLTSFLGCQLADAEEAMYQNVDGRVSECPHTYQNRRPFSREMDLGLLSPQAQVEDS

[9] = Cytotoxicity against human NCI-H2023 cells measured after 8 days; type: functional, cell-based; conditions: NCI-H2023, 192 h
[10] = Cytotoxicity against human NCI-H2106 cells measured after 8 days; type: functional, cell-based; conditions: NCI-H2106, 192 h
[11] = target: Transcription initiation factor TFIID subunit 1 (Homo sapiens, UniProt P21675); experiment: Displacement of biotinylated small-molecule ligand from recombinant His-tagged TAF1 bromodomain 2 (unknown origin) measured after 10 mins by TR-FRET assay
[12] = test system: HCC95; experiment: Cytotoxicity against human HCC95 cells measured after 8 days; type: functional, cell-based; conditions: HCC95, 192 h
[13] = target: Histamine H2 receptor (Homo sapiens) (UniProt P25021); experiment: Displacement of [125I]APT from human recombinant histamine H2 receptor at 10 uM after 120 mins by scintillation counting analysis relative to control
Histamine H2 receptor (Homo sapiens), sequence (P25021 whole entry): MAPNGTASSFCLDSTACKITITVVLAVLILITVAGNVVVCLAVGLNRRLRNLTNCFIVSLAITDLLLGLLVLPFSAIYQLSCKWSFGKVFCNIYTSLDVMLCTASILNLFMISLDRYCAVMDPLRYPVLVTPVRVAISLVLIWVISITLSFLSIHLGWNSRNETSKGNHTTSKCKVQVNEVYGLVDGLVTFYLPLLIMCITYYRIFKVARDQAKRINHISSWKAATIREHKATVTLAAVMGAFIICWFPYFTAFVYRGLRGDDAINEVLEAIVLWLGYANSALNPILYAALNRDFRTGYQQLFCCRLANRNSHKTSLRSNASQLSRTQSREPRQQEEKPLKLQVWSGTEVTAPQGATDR

[14] = target: Beta-1 adrenergic receptor (Homo sapiens) (UniProt P08588); experiment: Displacement of [3H](-)CGP 12177 from human beta1 adrenoceptor at 10 uM after 60 mins by scintillation counting analysis relative to control
Beta-1 adrenergic receptor (Homo sapiens), sequence (P08588 whole entry, looked up): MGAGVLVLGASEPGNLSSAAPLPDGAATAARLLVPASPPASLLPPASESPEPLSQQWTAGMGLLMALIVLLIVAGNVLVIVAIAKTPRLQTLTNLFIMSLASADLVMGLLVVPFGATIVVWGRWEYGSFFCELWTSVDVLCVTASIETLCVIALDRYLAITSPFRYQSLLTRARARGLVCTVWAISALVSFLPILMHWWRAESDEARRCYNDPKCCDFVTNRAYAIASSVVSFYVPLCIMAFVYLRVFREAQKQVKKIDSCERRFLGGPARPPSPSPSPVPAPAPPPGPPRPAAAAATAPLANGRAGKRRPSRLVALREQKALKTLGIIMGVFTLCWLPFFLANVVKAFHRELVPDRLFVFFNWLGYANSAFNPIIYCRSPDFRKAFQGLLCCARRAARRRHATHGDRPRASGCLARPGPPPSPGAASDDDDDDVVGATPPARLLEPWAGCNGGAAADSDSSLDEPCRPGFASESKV

[15] = Cytotoxicity against human HCC2302 cells measured after 8 days; type: functional, cell-based; conditions: HCC2302, 192 h
[16] = test system: Ramos; experiment: Cytotoxicity against human Ramos cells measured after 8 days; type: functional, cell-based; conditions: 192 h
[17] = target: Dual specificity protein kinase CLK2 (Homo sapiens) (UniProt P49760); experiment: Inhibition of CLK2 (unknown origin) at 1 uM relative to control
Dual specificity protein kinase CLK2 (Homo sapiens), sequence (P49760 whole entry, looked up): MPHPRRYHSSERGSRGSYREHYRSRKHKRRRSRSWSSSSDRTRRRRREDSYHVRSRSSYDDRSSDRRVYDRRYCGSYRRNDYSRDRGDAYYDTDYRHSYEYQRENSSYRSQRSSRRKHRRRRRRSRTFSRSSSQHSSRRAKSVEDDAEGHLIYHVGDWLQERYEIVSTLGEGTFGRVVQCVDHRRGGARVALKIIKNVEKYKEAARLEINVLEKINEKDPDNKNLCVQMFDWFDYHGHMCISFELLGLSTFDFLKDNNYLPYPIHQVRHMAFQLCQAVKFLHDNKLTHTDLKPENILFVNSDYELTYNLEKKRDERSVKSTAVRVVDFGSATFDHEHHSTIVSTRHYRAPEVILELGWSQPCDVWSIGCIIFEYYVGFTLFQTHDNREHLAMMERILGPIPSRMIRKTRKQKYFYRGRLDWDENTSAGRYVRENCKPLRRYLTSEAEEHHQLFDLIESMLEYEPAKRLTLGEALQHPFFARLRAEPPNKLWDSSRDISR

[18] = Cytotoxicity against human HNT-34 cells measured after 8 days; type: functional, cell-based; conditions: HNT-34, 192 h
[19] = test system: HCC1143; experiment: Cytotoxicity against human HCC1143 cells measured after 8 days; type: functional, cell-based; conditions: HCC1143, 192 h
[20] = target: L-type calcium channel, verapamil binding site (Rattus norvegicus, UniProt P22002+P27732+Q02485); experiment: Displacement of [3H]D 888 from rat brain L-type calcium channel verapamil binding site at 10 uM after 120 mins by scintillation counting analysis relative to control; conditions: rat brain L-type calcium channel preparation, probe [3H]D 888, read-out: Activity
[21] = Cytotoxicity against human ATRFLOX cells measured after 8 days; type: functional, cell-based; conditions: 192 h
[22] = species: Rattus norvegicus; experiment: Displacement of [3H]batrachotoxinin from rat brain sodium voltage gated ion channel site 2 at 10 uM after 60 mins by scintillation counting analysis relative to control
[23] = target: T1, Myosin light chain kinase (Homo sapiens) (UniProt Q32MK0); experiment: Inhibition of MYLK3 (unknown origin) at 1 uM relative to control
T1 sequence (whole entry): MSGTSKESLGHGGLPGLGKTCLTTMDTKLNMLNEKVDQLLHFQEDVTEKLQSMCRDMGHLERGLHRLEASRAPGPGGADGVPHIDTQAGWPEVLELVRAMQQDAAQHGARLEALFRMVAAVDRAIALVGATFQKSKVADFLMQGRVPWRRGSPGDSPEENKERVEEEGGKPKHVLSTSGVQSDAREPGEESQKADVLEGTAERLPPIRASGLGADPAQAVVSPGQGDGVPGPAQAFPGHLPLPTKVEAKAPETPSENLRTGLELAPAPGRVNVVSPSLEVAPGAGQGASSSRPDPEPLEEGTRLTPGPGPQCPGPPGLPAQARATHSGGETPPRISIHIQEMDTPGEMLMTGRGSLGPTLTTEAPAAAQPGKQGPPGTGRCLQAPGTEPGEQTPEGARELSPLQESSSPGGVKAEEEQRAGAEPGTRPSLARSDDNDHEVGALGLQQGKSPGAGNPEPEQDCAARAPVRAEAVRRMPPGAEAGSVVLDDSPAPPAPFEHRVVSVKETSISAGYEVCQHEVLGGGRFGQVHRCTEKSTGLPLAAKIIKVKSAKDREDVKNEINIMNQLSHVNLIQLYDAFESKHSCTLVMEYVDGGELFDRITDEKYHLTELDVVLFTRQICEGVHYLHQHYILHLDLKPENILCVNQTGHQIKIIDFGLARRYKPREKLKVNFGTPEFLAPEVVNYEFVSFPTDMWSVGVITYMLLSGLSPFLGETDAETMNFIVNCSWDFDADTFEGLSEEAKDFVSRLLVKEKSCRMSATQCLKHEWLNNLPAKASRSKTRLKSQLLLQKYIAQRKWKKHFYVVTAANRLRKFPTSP

[24] = target: Histone acetyltransferase KAT2B (Homo sapiens, UniProt Q92831); experiment: Binding affinity to human partial length PCAF (G715 to D831 residues) expressed in bacterial expression system by BROMOscan assay
Histone acetyltransferase KAT2B, sequence (Q92831 whole entry, the tested form may be a part): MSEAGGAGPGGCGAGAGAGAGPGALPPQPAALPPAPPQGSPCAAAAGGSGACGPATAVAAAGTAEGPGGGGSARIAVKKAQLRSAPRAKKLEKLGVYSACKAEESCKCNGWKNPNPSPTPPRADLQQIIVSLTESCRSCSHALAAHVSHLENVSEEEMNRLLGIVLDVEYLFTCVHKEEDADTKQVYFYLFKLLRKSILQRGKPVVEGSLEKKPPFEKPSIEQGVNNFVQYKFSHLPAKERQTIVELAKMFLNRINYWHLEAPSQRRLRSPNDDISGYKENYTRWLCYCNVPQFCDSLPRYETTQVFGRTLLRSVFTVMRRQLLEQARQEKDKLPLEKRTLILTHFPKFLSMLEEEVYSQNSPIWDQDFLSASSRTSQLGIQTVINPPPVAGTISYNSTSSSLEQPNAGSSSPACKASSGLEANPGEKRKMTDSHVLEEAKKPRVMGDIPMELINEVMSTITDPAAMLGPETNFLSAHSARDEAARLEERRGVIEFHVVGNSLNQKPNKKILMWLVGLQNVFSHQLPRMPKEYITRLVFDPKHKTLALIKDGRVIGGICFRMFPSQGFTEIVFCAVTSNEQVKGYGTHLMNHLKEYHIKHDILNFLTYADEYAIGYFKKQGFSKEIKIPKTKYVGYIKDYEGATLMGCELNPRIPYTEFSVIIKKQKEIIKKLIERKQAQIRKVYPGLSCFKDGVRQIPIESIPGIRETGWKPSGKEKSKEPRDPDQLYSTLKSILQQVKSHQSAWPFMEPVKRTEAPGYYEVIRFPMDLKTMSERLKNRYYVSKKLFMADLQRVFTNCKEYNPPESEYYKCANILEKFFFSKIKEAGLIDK

[25] = Cytotoxicity against human PL-21 cells measured after 8 days; type: functional, cell-based; conditions: PL-21, 192 h
[26] = test system: HCC1419; experiment: Cytotoxicity against human HCC1419 cells measured after 8 days; type: functional, cell-based; conditions: HCC1419, 192 h
[27] = Cytotoxicity against human NCI-H2731 cells measured after 8 days; type: functional, cell-based; conditions: NCI-H2731, 192 h
[28] = target: Tyrosine-protein kinase Lck (Homo sapiens) (UniProt P06239); experiment: Inhibition of LCK (unknown origin) at 1 uM relative to control
Tyrosine-protein kinase Lck (Homo sapiens), sequence (P06239 2-509 limits assumed): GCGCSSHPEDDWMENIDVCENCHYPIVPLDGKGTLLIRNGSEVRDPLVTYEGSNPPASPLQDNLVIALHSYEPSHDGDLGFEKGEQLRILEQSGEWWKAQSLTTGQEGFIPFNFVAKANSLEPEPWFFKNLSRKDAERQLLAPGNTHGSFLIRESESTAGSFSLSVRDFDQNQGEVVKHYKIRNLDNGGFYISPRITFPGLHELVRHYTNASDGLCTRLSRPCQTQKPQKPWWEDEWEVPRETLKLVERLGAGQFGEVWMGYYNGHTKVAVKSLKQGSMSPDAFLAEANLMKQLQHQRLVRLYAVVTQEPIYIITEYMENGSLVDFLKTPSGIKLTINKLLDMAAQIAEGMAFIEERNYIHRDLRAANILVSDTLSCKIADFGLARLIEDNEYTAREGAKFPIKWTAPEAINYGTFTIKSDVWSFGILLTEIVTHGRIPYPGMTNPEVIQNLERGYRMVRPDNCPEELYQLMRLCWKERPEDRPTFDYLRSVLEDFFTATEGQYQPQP

[29] = test system: BEN; experiment: Cytotoxicity against human BEN cells measured after 8 days; type: functional, cell-based; conditions: 192 h
[30] = test system: NCI-H1437; experiment: Cytotoxicity against human NCI-H1437 cells measured after 8 days; type: functional, cell-based; conditions: NCI-H1437, 192 h
[31] = test system: NCI-H82; experiment: Cytotoxicity against human NCI-H82 cells measured after 8 days; type: functional, cell-based; conditions: NCI-H82, 192 h
[32] = Cytotoxicity against human HCC461 cells measured after 8 days; type: functional, cell-based; conditions: HCC461, 192 h
[33] = Cytotoxicity against human KPL-1 cells measured after 8 days; type: functional, cell-based; conditions: KPL-1, 192 h
[34] = test system: ONS-76; experiment: Cytotoxicity against human ONS-76 cells measured after 8 days; type: functional, cell-based; conditions: ONS-76, 192 h
[35] = test system: T47D; experiment: Cytotoxicity against human T47D cells measured after 8 days; type: functional, cell-based; conditions: 192 h
[36] = test system: NCI-H2009; experiment: Cytotoxicity against human NCI-H2009 cells measured after 8 days; type: functional, cell-based; conditions: NCI-H2009, 192 h

| SMILES | IC50 [1] [µM] | Activity [2] [%] | IC50 [3] [µM] | Activity [4] [%] | IC50 [5] [µM] | IC50 [6] [µM] | IC50 [7] [µM] | inhibition [8] [%] | IC50 [9] [µM] | IC50 [10] [µM] | IC50 [11] [µM] | IC50 [12] [µM] | Activity [13] [%] | Activity [14] [%] | IC50 [15] [µM] | IC50 [16] [µM] | inhibition [17] [%] | IC50 [18] [µM] | IC50 [19] [µM] | Kd [24] [µM] | also measured |
| --- | --- | --- | --- | --- | --- | --- | --- | --- | --- | --- | --- | --- | --- | --- | --- | --- | --- | --- | --- | --- | --- |
| C/C=C/Cn1cc(-c2ccc(C(=O)N3CCOCC3)cc2)c2cc[nH]c2c1=O | 20 | 1 | 20 | 8 | 20 | 20 | 20 | 4.4 | 20 | 20 | 1.5 | 20 | 6 | 4 | 20 | 20 | 2 | 8.35 | 20 | > 10 | inhibition at 2 h, 10 µM [20]: 7%; IC50 [21]: 20 µM; Activity [22]: 11%; inhibition [23]: 1.4%; IC50 [25]: 20 µM; IC50 [26]: 20 µM; IC50 [27]: 20 µM; inhibition [28]: 6.5%; IC50 [29]: 20 µM; IC50 [30]: 20 µM; IC50 [31]: 20 µM; IC50 [32]: 20 µM; IC50 [33]: 20 µM; IC50 [34]: 20 µM; IC50 [35]: 20 µM; IC50 [36]: 20 µM |
| C/C=C/Cn1cc(-c2ccc(C(C)(C)O)cc2OC)c2cc[nH]c2c1=O | 20 | 5 | 20 | -15 | 20 | 20 | 20 | 15 | 20 | 20 | > 20 | 20 | 1 | 11 | 20 | 20 | 8 | 8.14 | 20 | > 10 | inhibition at 2 h, 10 µM [20]: -3%; IC50 [21]: 20 µM; Activity [22]: 12%; inhibition [23]: 2%; IC50 [25]: 20 µM; IC50 [26]: 20 µM; IC50 [27]: 20 µM; inhibition [28]: 19.5%; IC50 [29]: 20 µM; IC50 [30]: 20 µM; IC50 [31]: 20 µM; IC50 [32]: 20 µM; IC50 [33]: 17.5 µM; IC50 [34]: 20 µM; IC50 [35]: 20 µM; IC50 [36]: 20 µM |
| C/C=C/Cn1cc(-c2cc(OC)c(C(=O)N3CCOCC3)cc2OC)c2cc(C)[nH]c2c1=O | 2 | -1 | 2 | -10 | 2 | 2 | 2 | 6 | 2 | 2 | > 20 | 2 | -5 | 12 | 2 | 2 | 7.5 | 0.54 | 2 | > 10 | inhibition at 2 h, 10 µM [20]: 3%; IC50 [21]: 2 µM; Activity [22]: 17%; inhibition [23]: 5%; IC50 [25]: 2 µM; IC50 [26]: 2 µM; IC50 [27]: 2 µM; inhibition [28]: 18.5%; IC50 [29]: 2 µM; IC50 [30]: 2 µM; IC50 [31]: 2 µM; IC50 [32]: 2 µM; IC50 [33]: 2 µM; IC50 [34]: 2 µM; IC50 [35]: 2 µM; IC50 [36]: 2 µM |
| C/C=C/Cn1cc(-c2cc(OC)c(C(C)(C)O)cc2OC)c2cc(C)[nH]c2c1=O | – | – | – | – | – | – | – | – | – | – | > 20 | – | – | – | – | – | – | – | – | > 10 | – |
